Test results reported in patent publication US9521847B2, “Synergistic weed control from applications of pyridine carboxylic acid herbicides and synthetic auxin herbicides and/or auxin transport inhibitors” (Dow AgroSciences LLC, priority 2014, dated 2016).
Read-outs that look alike come from different tables or passages of the source.

What was measured:
[1] = system: Canadian thistle (CIRAR, Cirsium arvense); assay: Greenhouse postemergence trial, % visual injury;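 note: plants sprayed at second to third true leaf stage, injury scored visually 20-22 d later against solvent-blank sprayed controls, 0 meaning no injury and 100 complete kill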
[2] = system: spring rape (Brassica napus, BRSNN); assay: Greenhouse postemergence trial, % visual injury; conditions: Brassica napus, post-emergence, read-out: % visual injury, Obs
[3] = system: velvetleaf (Abutilon theophrasti, ABUTH); assay: Greenhouse postemergence trial, % visual injury; format: in vivo; conditions: Abutilon theophrasti, post-emergence, ABUTH, read-out: % visual injury, Obs
[4] = system: nutsedge (Cyperus esculentus, CYPES); assay: Greenhouse postemergence trial, % visual injury; format: in vivo; conditions: CYPES
[5] = system: common lambsquarters (CHEAL, Chenopodium album L.); assay: Greenhouse postemergence trial, % visual injury; format: in vivo
[6] = system: wild buckwheat (Polygonum convolvulus, POLCO); assay: Greenhouse postemergence trial, % visual injury; format: in vivo; conditions: for % visual injury, Obs: POLCO
[7] = system: ivyleaf morningglory (Ipomoea hederacea, IPOHE); assay: Greenhouse postemergence trial, % visual injury; conditions: Ipomoea, post-emergence
[8] = system: maize (ZEAMX); assay: Greenhouse postemergence trial, crop phytotoxicity (% visual injury); conditions: ZEAMX
[9] = system: poinsettia (Euphorbia heterophylla, EPHHL); assay: Greenhouse postemergence trial, % visual injury; conditions: Euphorbia heterophylla, post-emergence
[10] = system: kochia (KCHSC, Kochia scoparia); assay: Patio postemergence trial, % visual injury; format: in vivo; conditions: 20-22 d
Method: (§1) The plants were grown for 7-36 days (d) on a fenced, open-air patio. Nutrients and water were added on a regular basis.
(§2) Temperatures and photoperiods were dependent on the natural weather conditions during the trials. Weather conditions during trials were conducive for plant growth and development.

[11] = system: kochia (KCHSC, Kochia scoparia); assay: Greenhouse postemergence trial, % visual injury; format: in vivo; conditions: for % visual injury Obs: 20-22 d
Method: Following the protocol in Example 1, compound 1 and compound 2 were combined with 2,4 D EHE (EC) and applied to kochia (KCHSC, Kochia scoparia) and the phytotoxicity of the herbicidal compositions was measured.
Following the protocol in Example 1, compound 1 (EC) and Compound 2 (SC) were combined with diflufenzopyr and applied to kochia (Kochia scoparia, KCHSC) and the phytotoxicity of the herbicidal composition was measured.

[12] = system: winter rape (BRSNW, Brassica napus); assay: Greenhouse postemergence trial, % visual injury; format: in vivo; conditions: for % visual injury Obs: 20-22 d
[13] = system: wild pansy (Viola tricolor, VIOTR); assay: Greenhouse postemergence trial, % visual injury; conditions: VIOTR
[14] = system: winter wheat (TRZAW); assay: Patio postemergence trial, crop phytotoxicity (% visual injury); format: in vivo, Triticum aestivum; conditions: 20-22 d
Method: as §1, §2

[15] = system: large crabgrass (Digitaria sanguinalis, DIGSA); assay: Greenhouse postemergence trial, % visual injury; format: in vivo; conditions: Digitaria sanguinalis, post-emergence; DIGSA; MCPA EHE 140 g ae/ha; read-out: % visual injury, Obs
[16] = system: winter wheat (TRZAW); assay: Greenhouse postemergence trial, crop phytotoxicity (% visual injury); conditions: for % visual injury, Obs: TRZAW
[17] = system: spring barley (HORVS); assay: as above
[18] = system: pigweed (AMARE, Amaranthus retroflexus); assay: Greenhouse postemergence trial, % visual injury; format: in vivo; conditions: for % visual injury, Obs: AMARE
[19] = system: common chickweed (Stellaria media, STEME); assay: Greenhouse postemergence trial, % visual injury; format: in vivo; conditions: STEME
[20] = system: common rice (ORYSA); assay: Greenhouse postemergence trial, crop phytotoxicity (% visual injury); conditions: ORYSA
[21] = system: pigweed (AMARE, Amaranthus retroflexus); assay: Patio postemergence trial, % visual injury; format: in vivo; conditions: 20-22 d
Method: as §1, §2

[22] = system: MALPU = Malva pusilla (mallow); assay: Small plot field trial (Canada), % visual injury; format: in vivo; conditions: 35 g ae/ha alone, 26-33 DAA
Method: (§3) Trials were established as randomized complete blocks with 3-4 replicates. Individual plots were 2-3 meters (m) wide and 8-10 m long. Applications were made with backpack or tractor-mounted sprayers delivering a spray volume output of 100 liters per hectare (L/ha) using pressurized carbon dioxide (CO2) as a propellant. Compound 7 was combined with 2,4 D EHE (660 g ae/L EC formulation) and applied to spring wheat (TRZAS), and the phytotoxicity of the herbicidal compositions was measured. In addition, the efficacy of the herbicidal composition on Canadian thistle ([…], Cirsium arvense), […] scoparia), mallow ([…] pusilla), wild buckwheat (POLCO, Polygonum convolvulus), and lady's thumb (POLPE, Polygonum persicaria) was evaluated.

[23] = system: CIRAR = Cirsium arvense (Canadian thistle); assay: Small plot field trial (Canada), % visual injury; format: in vivo; conditions: 35 g ae/ha alone, 46-64 DAA
Method: as §3

[24] = system: lady's thumb (POLPE, Polygonum persicaria); assay: Small plot field trial (Canada), % visual injury; format: in vivo; conditions: 35 g ae/ha alone, 14-16 DAA
Method: as §3

[25] = system: kochia (KCHSC, Kochia scoparia); assay: Small plot field trial (Canada), % visual injury; format: in vivo; conditions: 35 g ae/ha alone, 46-64 DAA
Method: as §3

[26] = system: wild buckwheat (POLCO, Polygonum convolvulus); assay: Small plot field trial (Canada), % visual injury; format: in vivo; conditions: 35 g ae/ha alone, 15 DAA
Method: as §3

[27] = system: spring wheat (TRZAS); assay: Small plot field trial (Canada), crop phytotoxicity (% visual injury); format: in vivo, Triticum aestivum; conditions: 35 g ae/ha alone
Text: Small plot field trials were established in Canada to evaluate efficacy and crop safety of Compound 7 with 2,4-D EHE. Trials were established as randomized complete blocks with 3-4 replicates. Individual plots were 2-3 meters (m) wide and 8-10 m long. Applications were made with backpack or tractor-mounted sprayers delivering a spray volume output of 100 liters per hectare (L/ha) using pressurized carbon dioxide (CO2) as a propellant. Compound 7 was combined with 2,4 D EHE (660 g ae/L EC formulation) and applied to spring wheat (TRZAS), and the phytotoxicity of the herbicidal compositions was measured. In addition, the efficacy of the herbicidal composition on Canadian thistle ([…], Cirsium arvense), kochia (KCHSC, Kochia scoparia), mallow (MALPU, Marva pusilla), wild buckwheat (POLCO, Polygonum convolvulus), and lady's thumb (POLPE, Polygonum persicaria) was evaluated.

[28] = system: winter wheat (TRZAW); conditions: Triticum aestivum (winter wheat), in vivo
[29] = system: grain sorghum (Sorghum vulgare, SORVU); assay: Greenhouse postemergence trial, % visual injury; format: in vivo; conditions: SORVU, 140 g ae/ha
[30] = system: soybean (Glycine max, GIAMA); assay: Greenhouse postemergence trial, % visual injury; format: in vivo; conditions: GLXMA, 140 g ae/ha
[31] = crop, 280 g ae/ha alone, 20-22 d
[32] = Chenopodium album, post-emergence, read-out: % visual injury Obs

## CCCCC(CC)COC(=O)COc1ccc(Cl)cc1C (stereo not shown) [MCPA EHE, 2-ethylhexyl (4-chloro-2-methylphenoxy)acetate]
[1]; CIRAR, 280 g ae/ha
  % visual injury, Obs: 75%
[2]
  plant injury at 140 g/ha: 35%
  plant injury at 280 g/ha: 95%
[3]; 280 g ae/ha
  pest or weed control at 280 g/ha: 65%
[3]; MCPA EHE 140 g ae/ha
  pest or weed control at 140 g/ha: 0%
[4]; 280 g ae/ha
  % visual injury, Obs: 50%
[4]; MCPA EHE 140 g ae/ha
  % visual injury, Obs: 0%
[5]; Chenopodium album, post-emergence, 280 g ae/ha alone, 20-22 d, read-out: % visual injury Obs
  pest or weed control at 280 g/ha: 75%
[6]; MCPA EHE 420 g ae/ha
  % visual injury (Obs): 65%
[6]; 280 g ae/ha
  % visual injury, Obs: 70%
[6]; 420 g ae/ha
  % visual injury, Obs: 65%
[7]; read-out: % visual injury, Obs, IPOHE, MCPA EHE 140 g ae/ha
  pest or weed control at 140 g/ha: 80%
[8]; 280 g ae/ha
  % visual injury, Obs: 0%
[8]; MCPA EHE 140 g ae/ha
  % visual injury, Obs: 0%
[9]; read-out: % visual injury, Obs, EPHHL, MCPA EHE 140 g ae/ha
  pest or weed control at 140 g/ha: 0%
[10]; 280 g ae/ha alone
  % visual injury Obs: 20%
[11]; 280 g ae/ha alone
  % visual injury Obs: 0%
[11]; Bassia scoparia, post-emergence, KCHSC, 280 g ae/ha, read-out: % visual injury, Obs
  pest or weed control at 280 g/ha: 0%
[12]; 280 g ae/ha alone
  % visual injury Obs: 73%
[13]; 280 g ae/ha
  % visual injury, Obs: 75%
[13]; MCPA EHE 140 g ae/ha
  % visual injury, Obs: 60%
[14]; 280 g ae/ha alone
  % visual injury Obs: 0%
[15]
  pest or weed control at 140 g/ha: 10%
[16]; MCPA EHE 420 g ae/ha
  % visual injury (Obs): 0%
[16]; 280 g ae/ha
  % visual injury, Obs: 0%
[16]; 420 g ae/ha
  % visual injury, Obs: 0%
[16]; MCPA EHE 140 g ae/ha
  % visual injury, Obs: 3%
[16]; [31]
  % visual injury Obs: 3%
[17]; HORVS, 420 g ae/ha
  % visual injury, Obs: 0%
[17]; MCPA EHE 420 g ae/ha
  % visual injury (Obs): 0%
[17]; [31]
  % visual injury Obs: 0%
[18]; MCPA EHE 140 g ae/ha
  % visual injury, Obs: 70%
[18]; Amaranthus retroflexus, post-emergence, 280 g ae/ha alone, 20-22 d, read-out: % visual injury Obs
  pest or weed control at 280 g/ha: 35%
[19]; 280 g ae/ha
  % visual injury, Obs: 10%
[20]; 280 g ae/ha
  % visual injury, Obs: 0%
[20]; MCPA EHE 140 g ae/ha
  % visual injury, Obs: 3%

## Nc1c(F)c(-c2ccc3cc[nH]c3c2F)nc(C(=O)[O-])c1Cl.[K+] [compound 7]
[1]; Cirsium arvense, post-emergence, read-out: % visual injury Obs, 5 g ae/ha alone, 20-22 d
  pest or weed control at 5 g/ha: 50%
[1]; Cirsium arvense, post-emergence, read-out: % visual injury Obs, 8.75 g ae/ha alone, 20-22 d
  pest or weed control at 8.75 g/ha: 25%
[1]; Cirsium arvense, post-emergence, read-out: % visual injury Obs, 10 g ae/ha alone, 20-22 d
  pest or weed control at 10 g/ha: 65%
[5]; [32]
  pest or weed control at 5 g/ha: 80%
  pest or weed control at 8.75 g/ha: 60%
  pest or weed control at 10 g/ha: 100%
[21]; 8.75 g ae/ha alone
  % visual injury Obs: 30%
[21]; 17.5 g ae/ha alone
  % visual injury Obs: 40%
[10]; 8.75 g ae/ha alone
  % visual injury Obs: 5%
[10]; 17.5 g ae/ha alone
  % visual injury Obs: 0%
[11]; 8.75 g ae/ha alone
  % visual injury Obs: 55%
[22]
  % visual injury Obs: 15%
[23]
  % visual injury Obs: 20%
[24]
  % visual injury Obs: 20%
[25]
  % visual injury Obs: 62%
[26]
  % visual injury Obs: 50%
[12]; 8.75 g ae/ha alone
  % visual injury Obs: 58%
[27]; 6-8 DAA
  % visual injury Obs: 3%
[27]; 14-16 DAA
  % visual injury Obs: 3%
[14]; 8.75 g ae/ha alone
  % visual injury Obs: 5%
[14]; 17.5 g ae/ha alone
  % visual injury Obs: 0%
[28]
  % visual injury Obs: 0%
[18]; Amaranthus retroflexus, post-emergence, read-out: % visual injury Obs
  pest or weed control at 8.75 g/ha: 70%

## O=C(O)c1c(Cl)ccc2cc(Cl)cnc12 [quinclorac, reference compound]
[29]
  % visual injury, Obs: 0%
[3]; 140 g ae/ha
  pest or weed control at 140 g/ha: 0%
[5]; CHEAL, 140 g ae/ha
  % visual injury, Obs: 5%
[7]; read-out: % visual injury, Obs, IPOHE, 140 g ae/ha
  pest or weed control at 140 g/ha: 65%
[8]; 140 g ae/ha
  % visual injury, Obs: 0%
[9]; read-out: % visual injury, Obs, EPHHL, 140 g ae/ha
  pest or weed control at 140 g/ha: 20%
[11]; Bassia scoparia, post-emergence, KCHSC, 140 g ae/ha, read-out: % visual injury, Obs
  pest or weed control at 140 g/ha: 0%
[12]; BRSNW, 140 g ae/ha
  % visual injury, Obs: 0%
[30]
  % visual injury, Obs: 30%
[13]; 140 g ae/ha
  % visual injury, Obs: 10%
[16]; 140 g ae/ha
  % visual injury, Obs: 0%
[18]; 140 g ae/ha
  % visual injury, Obs: 10%
[19]; 140 g ae/ha
  % visual injury, Obs: 10%
[20]; 140 g ae/ha
  % visual injury, Obs: 0%
